We go through 3 molecules from patent US10130604B2, “Composition and method for treating neurodegenerative disease” (priority 2012, dated 2018).

Structures are written as SMILES. Where two headings read alike, the source gives them in different places.

For data set [1] the following is noted: gut; cited from earlier work.
The subject of data set [2] is Y39C-α-synuclein transgenic mice. Description: Rotarod test in Y39C-α-synuclein transgenic mice treated with glycerol phenylbutyrate. The class given is in vivo, mouse. The protocol:
Transgenic mice were genetically programmed from birth to develop a “Parkinson-Plus” condition by depositing an abnormal form of a protein called Y39C-α-synuclein in neurons of the brain under control of the Thy1 promoter (see Zhou et al., J. Biol. Chem., 2008, 283, 9863-70). […] After 6 weeks of daily treatment, animals were placed on a rotating rod (Rotarod) at different speeds for up to 5 minutes. Animals which could not keep up with the turning rod fell off. The time they were able to stay on the rod was noted. […] These differences were statistically significant at the higher speeds, 21 and 26 rpm. At the highest speed, 33 rpm, all animals fell off the rod after about 50 seconds.

The test system of data set [3] is DJ-1. The note with it: HEK293 reporter cells, 48 hr treatment.
Protocol: Cells were lysed in a dissociation buffer containing 50 mM Tris-HCl, 10 mM NaCl, 0.1% Triton X-100 plus protease inhibitor cocktail (Roche). […] Protein concentration was determined by the BCA method (Pierce). Fifty μg of protein was separated on 10% SDSPAGE gel and transferred to a nitrocellulose membrane. After blocking nonspecific binding, membranes were incubated with antibodies to DJ-1 (1:5000, Chemicon), α-synuclein (1:3000, Transduction Laboratories), TH (1;2000, PelFreez), and β-actin (1:4000, Sigma). Blots were incubated with HRP-conjugated secondary antibody (1:10,000; Jackson Immune Research), followed by chemiluminescent detection (Perkin Elmer life Sciences) (31,38).
The luciferase assay was based on the pGLuc-Basic vector (NEB). The human DJ-1 2 kb promoter area was amplified by PCR using genomic DNA from HEK293 cells. The human DJ-1 promoter was then cloned into the pGLuc-Basic vector, and that reporter vector was transfected into HEK293 cells. G418 (200 μg/ml) was applied to the cultures, and resistant clones were selected and assayed for luciferase activity. […] Culture medium samples (20 μl) were incubated with Gaussia luciferase assay substrate (NEB), and luminescence was measured in a 96-well plate reader (BioTek Synergy HT Multi-Mode microplate reader).
For data set [4], the system named is α-synuclein. The following applies: C57BL/6 mice, drinking water, two weeks.
Protocol: (§1) Cells were lysed in a dissociation buffer containing 50 mM Tris-HCl, 10 mM NaCl, 0.1% Triton X-100 plus protease inhibitor cocktail (Roche). The mouse brain tissues were dissected and quickly frozen in dry ice. Tissues were thawed on ice and homogenized in dissociation buffer with protease inhibitors (Roche). Protein concentration was determined by the BCA method (Pierce). Fifty μg of protein was separated on 10% SDSPAGE gel and transferred to a nitrocellulose membrane. After blocking nonspecific binding, membranes were incubated with antibodies to DJ-1 (1:5000, Chemicon), α-synuclein (1:3000, Transduction Laboratories), TH (1;2000, PelFreez), and β-actin (1:4000, Sigma). Blots were incubated with HRP-conjugated secondary antibody (1:10,000; Jackson Immune Research), followed by chemiluminescent detection (Perkin Elmer life Sciences) (31,38).
(§2) Adult C57BL/6 mice (4-6 months old) were treated with PB and SB in drinking water for 14 days. The PB and SB were dissolved in water at concentrations of 500, 1000, 1500, and 2000 mg/L. Mice typically drink 4-5 ml of water per day, and their drinking volumes were not affected by the addition of PB or SB. Control animals received water with sodium chloride added to the same molarity as the sodium in the drug-treated animals. […]
In data set [5] the test system is DJ-1. The note with it: C57BL/6 mice, drinking water, two weeks, vs control.
Protocol: as §1, §2
Data set [6] relates to DJ-1. The note with it: N27 cells, two days treatment, Western blot. (In general: A western blot detects proteins with antibodies after separation by electrophoresis.)
Protocol: Dopaminergic cells derived from embryonic day 12 rat mesencephalon and immortalized with the SV40 large T antigen designated 1RB3AN27, (N27 cells) were used (37). […] Cells were lysed in a dissociation buffer containing 50 mM Tris-HCl, 10 mM NaCl, 0.1% Triton X-100 plus protease inhibitor cocktail (Roche). […] Protein concentration was determined by the BCA method (Pierce). Fifty μg of protein was separated on 10% SDSPAGE gel and transferred to a nitrocellulose membrane. […] Blots were incubated with HRP-conjugated secondary antibody (1:10,000; Jackson Immune Research), followed by chemiluminescent detection (Perkin Elmer life Sciences) (31,38).
For data set [7], the system named is human DJ-1 promoter. The experiment in a line: Human DJ-1 promoter-luciferase reporter assay in HEK293 cells. The following applies: 48 hr treatment. The class given is cell-based. An excerpt: The human DJ-1 2 kb promoter area was amplified by PCR using genomic DNA from HEK293 cells. The human DJ-1 promoter was then cloned into the pGLuc-Basic vector, and that reporter vector was transfected into HEK293 cells.

Data set [8] has as its system Vamp2. The note with it: A53T human α-synuclein overexpression plus phenylbutyrate.
For data set [9], the system named is N27 cells. The note with it: shDJ-1 N27 cells; H2O2 75 or 100 μM, 6-OHDA 60 or 80 μM.
For data set [10], the system named is N27 cells.
The test system of data set [11] is N27 cells. The following applies: two days pretreatment, then A53T α-synuclein adenovirus two days.
In data set [12] the test system is Y39C α-synuclein transgenic mice. The following applies: 1000 mg/L drinking water, 6 and 12 weeks.
Protocol: The [MUT] α-synuclein transgenic mice were divided into younger (6-8 months=Young Tg) and older (10-12 months=Old Tg) groups. Each group received PB (1000 mg/L, 5.4 mM) or vehicle (NaCl) in the drinking water for 3 months. Animals were tested for rotarod and water maze performance after 6-weeks and 12-weeks of treatment. Mice were tested for their ability to run on a 3 cm diameter rotating rod (rotarod) at speeds ranging from 3 to 33 rpm. The protocol consisted of two phases: habituation (Day 1) and rotated training/testing (Days 2 to 5). During habituation on Day 1, the mice were trained to remain on the rotarod at 3 rpm. […] Each test day, the speed was increased, reaching 33 rpm by Day 5. The time the mice spent on the rotarod without falling was recorded for each trial.
For data set [13], the system named is Lamp2.
For data set [14] the following is noted: cited from earlier work.
Data set [15] concerns Y39C α-synuclein transgenic mice. The following applies: 1000 mg/L drinking water, 6 and 12 weeks. This is another data set of the same source.
Protocol: The [MUT] α-synuclein transgenic mice were divided into younger (6-8 months=Young Tg) and older (10-12 months=Old Tg) groups. Each group received PB (1000 mg/L, 5.4 mM) or vehicle (NaCl) in the drinking water for 3 months. Animals were tested for rotarod and water maze performance after 6-weeks and 12-weeks of treatment. Spatial learning was assessed using the Morris water maze. The maze included a circular tank (120 cm in diameter) filled to 10 cm below the edge of the tank with 27° C. water that was made opaque by the addition of non-toxic black ink. A circular escape platform (10 cm in diameter) was located 1 cm below the surface of the water in a constant location in the northwest quadrant of the tank. Mice were first acclimated to the maze during three trial habituation sessions. Each testing session consisted of three consecutive days with four trials per day. The platform was invisible in the pool, and mice were allowed to swim for 60 sec before being returned to the home cage. The latency from all training and testing sessions was collected.
Data set [16] concerns dopamine neurons. The note with it: vs MPTP alone. The protocol: Treatment with PB continued after MPTP injection. […] One week after MPTP lessoning, mouse brain tissues were dissected for Western blot and HPLC analysis. Mouse striatum was frozen in dry ice, sonicated in ice-cold 0.2 m perchloric acid and centrifuged at 15,000 g for 15 min at 4° C. An aliquot (5 μL) of the supernatant solution was analyzed by HPLC equipped with an electrochemical detector (CoulArray system ESA Model 5600; ESA, Boston, Mass., USA), a pump (ESA Model 580) set at 1.5 mL/min, and a reverse-phase C18 column (3 μm, 100 Å 4.6 mm, Waters, Milford, Mass., USA). The mobile phase was composed of 100 mm citric acid, 2% methanol, 1 mm EDTA and 5 mg/L sodium octyl sulfate (pH 3.0).

Data set [17] relates to Nrf2. The following applies: N27 dopamine neurons.
Setting [18] is: 1000 mg/L drinking water, Western blot.

`O=C(CCCc1ccccc1)OCC(COC(=O)CCCc1ccccc1)OC(=O)CCCc1ccccc1` [glycerol phenylbutyrate, Glycerol phenylbutyrate]: the “metabolism of the pro-drug” value in [1] is listed as “metabolized in the gut to produce the active compound phenylbutyrate”. Moreover, in data set [2] (6 weeks daily treatment, vs glycerol, significant at 21 and 26 rpm), the “time able to stay on the rotating rod” value is listed as “able to stay on the rod longer”. In data set [2] (33 rpm, all animals), the “time until animals fell off the rod at the highest speed” value is “about 50 seconds”.

As for `CCCC(=O)[O-].[Na+]` [sodium butyrate], the DJ-1 protein levels result is “increased” in data set [3] and 300 % of control in data set [6]. Moreover, in data set [4], the “α-synuclein concentrations in brain” value is listed as “not changed”. Besides, the “brain DJ-1 levels” value in data set [5] is “significantly increased DJ-1 levels”. Besides, in [7], the luciferase activity result was “increased luciferase activity”.

Consider `O=C([O-])CCCc1ccccc1.[Na+]` [sodium phenylbutyrate], for which the “Vamp2 overexpression, A53T with addition of phenylbutyrate” value in data set [8] is given as 200 fold. Moreover, the “neuroprotective effect against H2O2 and 6-OHDA-induced toxicity after DJ-1 knockdown” value in data set [9] is reported as “effectively abolished the neuroprotective effect”. In [10] (H2O2 75 or 100 μM, 6-OHDA 60 or 80 μM), the “cell viability in naïve N27 cells” value is “significantly improved cell viability”. The cell survival result in data set [10] (cells exposed to H2O2 and A53T, not shown) is given as “substantially better”. In data set [11], the “cell viability after A53T mutant α-synuclein expression” value is on record as “increased cell viability” and the “number of cells with α-synuclein aggregates” value was “reduced the number of cells with α-synuclein aggregates”. Also, the “motor function (rotarod), Young Tg mice” value in data set [12] is recorded as “did not change motor function”. The “motor function (rotarod), Old Tg mice” value in data set [12] (vs vehicle) was “significantly improved motor function”. In data set [13] (A53T expression plus phenylbutyrate), the “increase in Lamp2 gene expression, with A53T” value amounted to 400 fold. In [13] (N27 dopamine neurons, drug alone), the “increase in Lamp2 expression” value is given as “about 30 fold”. In addition, the “increase in Lamp2 expression, pretreatment followed by H2O2” value in [13] (pretreatment 48 hr, then H2O2) was 200 fold. Further, in [14], the half-life in vivo was 50 min. The luciferase activity entry in data set [7] is “increased luciferase activity”. Further, the “water maze performance, Young Tg mice” value in [15] is listed as “did not change water maze performance”. For the same molecule, the “water maze function, Old Tg mice” value in [15] (vs vehicle) is “prevented the age-related decline in water maze function”. The “striatal dopamine levels (HPLC)” value in data set [16] (1000 mg/L drinking water two weeks before MPTP) is recorded as “significantly increased striatal dopamine levels”. Also, in [16] (setting [18]), the “DJ-1 levels in striatum” value is “significantly increased” and the “tyrosine hydroxylase protein levels in striatum” value is on record as “increased”. The “numbers of TH positive dopamine neurons in the substantia nigra” value in data set [16] (1000 mg/L drinking water) was “significantly higher numbers of TH positive dopamine neurons”. For the same molecule, in [17], the “increase in Nrf2 mRNA” value is 50 fold.
